Laboratory results taken from PubChem BioAssay AID2060895 (Molecular Pharmacology Branch, DTP, NCI, 2025).
Where “and” joins values, the source holds several entries; their conditions need not be identical. Equal entries are not always repeated. Each block holds one compound with its values, some of them ahead of it.

Test system: PDC 899932-113-R3-J6 complex spheroid viability
Assay: Anticancer human tumor 899932-113-R3-J6-PDC patient-derived melanoma cell line growth inhibition [RAS]
Settings: for viability, T/C: stronger effect = lower value
Outline: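 Agents were tested in combination matrices in half-log decrements from a top concentration at or near clinical Cmax (10 microM if undetermined). Targets were multi-cell spheroids of tumour lines plus HUVEC and MSC stromal cells.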

[1] = curve of first compound, second compound 0.000949 µM
[2] = curve of first compound, second compound 0.003 µM
[3] = curve of first compound, second compound 0.00949 µM
[4] = curve of first compound, second compound 0.03 µM
[5] = curve of first compound, second compound 0.0949 µM
[6] = curve of first compound, second compound 0.3 µM
[7] = second compound 0.000949 µM, first compound 0.00316 µM
[8] = second compound 0.000949 µM, first compound 0.01 µM
[9] = second compound 0.000949 µM, first compound 0.0316 µM
[10] = second compound 0.000949 µM, first compound 0.1 µM
[11] = second compound 0.000949 µM, first compound 0.316 µM
[12] = second compound 0.000949 µM, first compound 1 µM
[13] = second compound 0.003 µM, first compound 0.00316 µM
[14] = second compound 0.003 µM, first compound 0.01 µM
[15] = second compound 0.003 µM, first compound 0.0316 µM
[16] = second compound 0.003 µM, first compound 0.1 µM
[17] = second compound 0.003 µM, first compound 0.316 µM
[18] = second compound 0.003 µM, first compound 1 µM
[19] = second compound 0.00949 µM, first compound 0.00316 µM
[20] = second compound 0.00949 µM, first compound 0.01 µM
[21] = second compound 0.00949 µM, first compound 0.0316 µM
[22] = second compound 0.00949 µM, first compound 0.1 µM
[23] = second compound 0.00949 µM, first compound 0.316 µM
[24] = second compound 0.00949 µM, first compound 1 µM
[25] = second compound 0.03 µM, first compound 0.00316 µM
[26] = second compound 0.03 µM, first compound 0.01 µM
[27] = second compound 0.03 µM, first compound 0.0316 µM
[28] = second compound 0.03 µM, first compound 0.1 µM
[29] = second compound 0.03 µM, first compound 0.316 µM
[30] = second compound 0.03 µM, first compound 1 µM
[31] = second compound 0.0949 µM, first compound 0.00316 µM
[32] = second compound 0.0949 µM, first compound 0.01 µM
[33] = second compound 0.0949 µM, first compound 0.0316 µM
[34] = second compound 0.0949 µM, first compound 0.1 µM
[35] = second compound 0.0949 µM, first compound 0.316 µM
[36] = second compound 0.0949 µM, first compound 1 µM
[37] = second compound 0.3 µM, first compound 0.00316 µM
[38] = second compound 0.3 µM, first compound 0.01 µM
[39] = second compound 0.3 µM, first compound 0.0316 µM
[40] = second compound 0.3 µM, first compound 0.1 µM
[41] = second compound 0.3 µM, first compound 0.316 µM
[42] = second compound 0.3 µM, first compound 1 µM
[43] = second compound 0.000949 µM, first compound 3.16 µM
[44] = second compound 0.000949 µM, first compound 10 µM
[45] = second compound 0.003 µM, first compound 3.16 µM
[46] = second compound 0.003 µM, first compound 10 µM
[47] = second compound 0.00949 µM, first compound 3.16 µM
[48] = second compound 0.00949 µM, first compound 10 µM
[49] = second compound 0.03 µM, first compound 3.16 µM
[50] = second compound 0.03 µM, first compound 10 µM
[51] = second compound 0.0949 µM, first compound 3.16 µM
[52] = second compound 0.0949 µM, first compound 10 µM
[53] = second compound 0.3 µM, first compound 3.16 µM
[54] = second compound 0.3 µM, first compound 10 µM
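For viability, T/C in this document: spheroids exposed to agents for seven days before readout; 100% = DMSO vehicle control wells.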

- IC50 [1]: > 1 µM
- IC50 [2]: > 1 µM
- IC50 [3]: > 1 µM
- IC50 [4]: > 1 µM
- IC50 [5]: > 1 µM
- IC50 [6]: > 1 µM
SMILES: C=CC(=O)N1CCN(c2nc(OCC3CCCN3C)nc3c(F)c(-c4nc(N)cc(C)c4C(F)(F)F)c(Cl)cc23)C(C)C1 (stereo not given) + CCn1c(-c2cccnc2C(C)OC)c2c3cc(ccc31)N1CCOC(CC(NC(=O)C(C(C)C)N(C)C(=O)C3(F)CCN(C(=O)C#CC(C)(C)N(C)C)CC3)C(=O)N3CCCC(N3)C(=O)OCC(C)(C)C2)C1
- viability, T/C [7]: 113%
- viability, T/C [8]: 101%
- viability, T/C [9]: 118%
- viability, T/C [10]: 106%
- viability, T/C [11]: 108%
- viability, T/C [12]: 105%
- viability, T/C [13]: 107%
- viability, T/C [14]: 118%
- viability, T/C [15]: 105%
- viability, T/C [16]: 108%
- viability, T/C [17]: 108%
- viability, T/C [18]: 104%
- viability, T/C [19]: 110%
- viability, T/C [20]: 107%
- viability, T/C [21]: 102%
- viability, T/C [22]: 107%
- viability, T/C [23]: 112%
- viability, T/C [24]: 106%
- viability, T/C [25]: 106%
- viability, T/C [26]: 97%
- viability, T/C [27]: 110%
- viability, T/C [28]: 110%
- viability, T/C [29]: 114%
- viability, T/C [30]: 104%
- viability, T/C [31]: 101%
- viability, T/C [32]: 102%
- viability, T/C [33]: 96%
- viability, T/C [34]: 101%
- viability, T/C [35]: 95.2%
- viability, T/C [36]: 92.8%
- viability, T/C [37]: 91.2%
- viability, T/C [38]: 87%
- viability, T/C [39]: 92.1%
- viability, T/C [40]: 87.9%
- viability, T/C [41]: 84.9%
- viability, T/C [42]: 90.9%

- IC50 (curve of compound): > 0.1 µM and 0.076 µM and 0.0693 µM
SMILES: CC(C)n1nc(-c2ccc3oc(N)nc3c2)c2c(N)ncnc21
- viability, T/C (compound 0.000316 µM): 107% [middle of 4 runs]
- viability, T/C (compound 0.001 µM): 102% [middle of 4 runs]
- viability, T/C (compound 0.00316 µM): 116% [middle of 4 runs]
- viability, T/C (compound 0.0316 µM): 71.8% [middle of 4 runs]

- IC50 [1]: 5.52 µM
- IC50 [2]: 5.97 µM
- IC50 [3]: 5.59 µM
- IC50 [4]: 4.9 µM
- IC50 [5]: 3.86 µM
- IC50 [6]: 2.64 µM
SMILES: CC(C)NCC(C(=O)N1CCN(c2ncnc3c2C(C)CC3O)CC1)c1ccc(Cl)cc1 (stereo not given) + CCn1c(-c2cccnc2C(C)OC)c2c3cc(ccc31)N1CCOC(CC(NC(=O)C(C(C)C)N(C)C(=O)C3(F)CCN(C(=O)C#CC(C)(C)N(C)C)CC3)C(=O)N3CCCC(N3)C(=O)OCC(C)(C)C2)C1
- viability, T/C [9]: 105%
- viability, T/C [10]: 97.3%
- viability, T/C [11]: 97%
- viability, T/C [12]: 84.2%
- viability, T/C [43]: 62.5%
- viability, T/C [44]: 36.5%
- viability, T/C [15]: 112%
- viability, T/C [16]: 106%
- viability, T/C [17]: 97.3%
- viability, T/C [18]: 80%
- viability, T/C [45]: 68.7%
- viability, T/C [46]: 36.5%
- viability, T/C [21]: 111%
- viability, T/C [22]: 107%
- viability, T/C [23]: 96%
- viability, T/C [24]: 90.7%
- viability, T/C [47]: 59.2%
- viability, T/C [48]: 39%
- viability, T/C [27]: 99.3%
- viability, T/C [28]: 105%
- viability, T/C [29]: 96.2%
- viability, T/C [30]: 80.8%
- viability, T/C [49]: 58%
- viability, T/C [50]: 38%
- viability, T/C [33]: 97.3%
- viability, T/C [34]: 97.8%
- viability, T/C [35]: 88%
- viability, T/C [36]: 71.4%
- viability, T/C [51]: 53.8%
- viability, T/C [52]: 36.7%
- viability, T/C [39]: 89.1%
- viability, T/C [40]: 84.8%
- viability, T/C [41]: 74.3%
- viability, T/C [42]: 60.2%
- viability, T/C [53]: 49.5%
- viability, T/C [54]: 32.6%

- IC50 [1]: > 1 µM
- IC50 [2]: > 1 µM
- IC50 [3]: > 1 µM
- IC50 [4]: > 1 µM
- IC50 [5]: > 1 µM
- IC50 [6]: > 1 µM
SMILES: C=CC(=O)Nc1cc(Nc2nccc(-c3cn(C)c4ccccc34)n2)c(OC)cc1N(C)CCN(C)C + CCn1c(-c2cccnc2C(C)OC)c2c3cc(ccc31)N1CCOC(CC(NC(=O)C(C(C)C)N(C)C(=O)C3(F)CCN(C(=O)C#CC(C)(C)N(C)C)CC3)C(=O)N3CCCC(N3)C(=O)OCC(C)(C)C2)C1
- viability, T/C [7]: 113%
- viability, T/C [8]: 98.3%
- viability, T/C [9]: 101%
- viability, T/C [10]: 106%
- viability, T/C [11]: 115%
- viability, T/C [12]: 102%
- viability, T/C [13]: 104%
- viability, T/C [14]: 116%
- viability, T/C [15]: 107%
- viability, T/C [16]: 104%
- viability, T/C [17]: 112%
- viability, T/C [18]: 99.5%
- viability, T/C [19]: 108%
- viability, T/C [20]: 102%
- viability, T/C [21]: 108%
- viability, T/C [22]: 101%
- viability, T/C [23]: 110%
- viability, T/C [24]: 95.1%
- viability, T/C [25]: 104%
- viability, T/C [26]: 102%
- viability, T/C [27]: 101%
- viability, T/C [28]: 112%
- viability, T/C [29]: 112%
- viability, T/C [30]: 100%
- viability, T/C [31]: 102%
- viability, T/C [32]: 99.1%
- viability, T/C [33]: 103%
- viability, T/C [34]: 105%
- viability, T/C [35]: 104%
- viability, T/C [36]: 89.8%
- viability, T/C [37]: 96.5%
- viability, T/C [38]: 85.5%
- viability, T/C [39]: 96%
- viability, T/C [40]: 92.3%
- viability, T/C [41]: 90.9%
- viability, T/C [42]: 85.8%

- IC50 [1]: 1.07 µM
- IC50 [2]: < 0.0316 µM
- IC50 [3]: < 0.0316 µM
- IC50 [4]: < 0.0316 µM
- IC50 [5]: < 0.0316 µM
- IC50 [6]: < 0.0316 µM
SMILES: CCC(CC)c1cc(NC2CCC(N)C2)n2nccc2n1 (stereo not given) + CCn1c(-c2cc(N3CCN(C)CC3)cnc2C(C)OC)c2c3cc(ccc31)-c1csc(n1)CC(NC(=O)C1CC1C)C(=O)N1CCCC(N1)C(=O)OCC(C)(C)C2
- viability, T/C [9]: 69.1%
- viability, T/C [10]: 73.5%
- viability, T/C [11]: 64.5%
- viability, T/C [12]: 53.2%
- viability, T/C [43]: 0.22%
- viability, T/C [44]: 0.15%
- viability, T/C [15]: 28.8%
- viability, T/C [16]: 28.2%
- viability, T/C [17]: 26.5%
- viability, T/C [18]: 16.3%
- viability, T/C [45]: 0.58%
- viability, T/C [46]: 0.66%
- viability, T/C [21]: 3.22%
- viability, T/C [22]: 4.26%
- viability, T/C [23]: 3.48%
- viability, T/C [24]: 4.75%
- viability, T/C [47]: 0.1%
- viability, T/C [48]: 0.59%
- viability, T/C [27]: 3.14%
- viability, T/C [28]: 3.12%
- viability, T/C [29]: 3.99%
- viability, T/C [30]: 2.67%
- viability, T/C [49]: 0.09%
- viability, T/C [50]: 0.83%
- viability, T/C [33]: 2.55%
- viability, T/C [34]: 2.58%
- viability, T/C [35]: 2.46%
- viability, T/C [36]: 1.27%
- viability, T/C [51]: 0.74%
- viability, T/C [52]: 0.84%
- viability, T/C [39]: 2.43%
- viability, T/C [40]: 3.04%
- viability, T/C [41]: 2.55%
- viability, T/C [42]: 1.37%
- viability, T/C [53]: 0.48%
- viability, T/C [54]: 0.89%

- IC50 (curve of compound): 15 nM [middle of 4 runs]
SMILES: CC1(C)CCC(Nc2ncc(C(F)(F)F)c(-c3c[nH]c4c(P(C)(C)=O)c(C#N)ccc34)n2)CN1 (stereo not given)
- viability, T/C (compound 0.000949 µM): 98.3% [middle of 4 runs]
- viability, T/C (compound 0.003 µM): 75.5% [middle of 4 runs]
- viability, T/C (compound 0.00949 µM): 53.9% [middle of 4 runs]
- viability, T/C (compound 0.03 µM): 44.4% [middle of 4 runs]
- viability, T/C (compound 0.0949 µM): 18.4% [middle of 4 runs]
- viability, T/C (compound 0.3 µM): 12.9% [middle of 4 runs]
